# Test results published in patent US20250221960A1, “COMPOSITIONS AND METHODS FOR THE TREATMENT OF DEPRESSION” (Janssen Pharmaceuticals, Inc., priority 2022, published 2025).
# Key:
# subjects with MDD [1] = assay: SIGH-A score (anxiety), Example 1; assay type: in vivo, human; details: Treatment Week 6; 10 mg; 59 subjects analyzed
# Description: (§1) v. To investigate the effect of aticaprant on symptoms of anxiety using the HAM-A and on core symptoms of anxiety using the HAM-A6 subscale.
# (§2) • (i) Depression: Montgomery-Åsberg Depression Rating Scale (MADRS), Clinical Global Impression-Severity (CGI-S), Symptoms of Major Depressive Disorder Scale (SMDDS), and Self-assessment of treatment experience (SATE) • (ii) Anhedonia: Snaith-Hamilton Pleasure Scale (SHAPS) • (iii) Anxiety: Structured Interview Guide for the Hamilton Anxiety scale (SIGH-A) and HAM-A6 • (iv) Effects on Cognition: The Cognitive and Physical Functioning Questionnaire (CPFQ) • (v) Safety assessments
# subjects with MDD [2] = assay: SATE score, Example 1; assay type: in vivo, human; details: Treatment Week 6, 10 mg
# Description: SATE is a one to three questionnaire administered when the subject is unable to complete other evaluations, i.e., away from the clinical setting such as at home. SATE is useful to evaluate improvement or deterioration of depressive symptoms of the subjects over a short period of time. […] See, Table C.
# iv. To investigate the effect of aticaprant on symptoms of depression using the Clinical Global Impression-Severity (CGI-S), the patient reported Symptoms of Major Depressive Disorder Scale (SMDDS) and the self-assessment of treatment experience (SATE).
# as §2
# [3] = Weight change by treatment group, Example 1; assay type: in vivo, human
# Procedure: Treatment with aticaprant as described herein has several advantages over the treatments in the art. […] As used herein, the term “weight gain” refers to an increase in the weight of patient, relative to the weight of the patient before taking aticaprant or the weight of the patient that is assessed at the time of the initial administration of the aticaprant. In certain embodiments, the patient may actually see a decrease in overall weight, relative to the weight of the patient before taking aticaprant.
# At the lead-in baseline timepoint, the mean weight for subjects in the placebo group was 76.17 kg compared to 78.66 in the aticaprant group. After 6 weeks in the double-blind treatment phase, the mean weight in the placebo group was 75.75 kg compared to 78.57 kg in the aticaprant group. […] This is unexpected because other adjunctive treatments for MDD result in a mean weight increase. See, Thase M, et al. J Clin Psych. 2015: 76 (9), 1224-1231; Thase, J Clin Psych. 2015, 76 (9): 1232-1240; El Khalili, Int J Neuropsychopharmacol. 2010, 13, 917-932; Marcus, J. Clin. Psychopharmacol. […] Nashville, Tenn, ACNP, 2008; Earley, American College of Neuropsychopharmacology, 2007, Annual Meeting Abstracts (Boca Raton, Fla, Dec. 9-13, 2007). Nashville, TN, ACNP, 2007). See, Table 29.
# subjects with MDD [4] = assay: ASEX sexual functioning, Example 1; assay type: in vivo, human
# Description: As used herein, the term “decrease in sexual functioning” refers to reducing or lessening of one or more components of the human sex drive, i.e., sexual functioning. In some embodiments, the sexual functioning comprises one or more of sexual drive, sexual arousal, vaginal lubrication, erection, orgasm achievement, or orgasm satisfaction. In other embodiments, the sexual functioning comprises sexual drive. In further embodiments, the sexual functioning comprises vaginal lubrication satisfaction. In further embodiments, the sexual functioning comprises orgasm achievement. In yet other embodiments, the sexual functioning comprises orgasm satisfaction. Desirably, the patient's sexual functioning is assessed at the time of initial administration of the aticaprant. Thus, the patient's sexual functioning while taking aticaprant can be compared to the patient's sexual functioning before administration of aticaprant. Sexual functioning may be assessed by using standard scales and techniques such as the Arizona Sexual Experience Scale (ASEX). The ASEX is used to investigate whether aticaprant has a further positive or negative effect on sexual function. The ASEX is 5 item rating scale administered to patients that quantifies sexual drive, sexual arousal, vaginal lubrication or penile erection, ability to reach orgasm and satisfaction. Scores range from 5 to 30, and two different versions of the scale are available (males and females).
# Patients had their sexual functioning measured using a standard, well accepted rating scale: ASEX. See, Table 32.
# subjects with MDD [5] = assay: HAM-A6 total score (anxiety), Example 1; assay type: in vivo, human; details: Treatment Week 6
# Description: as §1, §2
# subjects with MDD [6] = assay: Treatment-emergent adverse events, full safety analysis set, Example 1
# [7] = Table 24, treatment period, Full Safety Analysis Set, 10 mg, N = 85
# [8] = Table 25, treatment period, Full Safety Analysis Set, 10 mg, N = 85
# [9] = Treatment period, Full Safety Analysis Set, 10 mg, N = 85
smiles,measurement,setting,value
"Cc1cc(C)cc(C2CCCN2Cc2ccc(Oc3ccc(C(N)=O)cc3F)cc2)c1 (stereo not shown) [aticaprant, 3-fluoro-4-4-2-(3,5-dimethylphenyl) pyrrolidin-1-yl-methylphenoxybenzamide]","Change from Treatment Baseline in Structured Interview Guide for the SIGH-A Score, Arithmetic Mean (SD)",subjects with MDD [1],−5.85 ± 5.369 scores on a scale
same,Number of Subjects with SATE Score: Depression Worsened (Much worse),subjects with MDD [2]; n = 0,0 subjects
same,Number of Subjects with SATE Score: Depression Worsened (Slightly worse),subjects with MDD [2]; n = 0,0 subjects
same,Number of Subjects with SATE Score: Depression Worsened (Very much worse),subjects with MDD [2]; n = 0,0 subjects
same,Number of Subjects with SATE Score: Depression Much improved,subjects with MDD [2]; n = 21,6 subjects
same,Number of Subjects with SATE Score: Depression Slightly improved,subjects with MDD [2]; n = 21,15 subjects
same,Number of Subjects with SATE Score: Depression Very Much Improved,subjects with MDD [2]; n = 21,0 subjects
same,Number of Subjects with SATE Score: Overall Depression (Got worse),subjects with MDD [2]; n = 30,0 subjects
same,Number of Subjects with SATE Score: Overall Depression (Improved),subjects with MDD [2]; n = 30,21 subjects
same,Number of Subjects with SATE Score: Overall Depression (Not changed),subjects with MDD [2]; n = 30,9 subjects
same,Mean weight: Relative % Change,"[3]; Withdrawal vs Lead-in, n = 85",−0.11%
same,weight over the 6-week double blind treatment period,[3]; in vivo,remained relatively stable
same,Mean weight: Absolute Change (Withdrawal - Lead-in),[3]; n = 85,-0.09 kg
same,ASEX score: Relative % Change,"subjects with MDD [4]; Endpoint vs Baseline, n = 85",−6.91%
same,ASEX score: Absolute Change,"subjects with MDD [4]; Endpoint vs Baseline, n = 85, lower score indicates improvement",−1.47
same,sexual functioning during treatment,subjects with MDD [4]; based on assessment at time of initial administration,does not experience a decrease in sexual functioning
same,mean change from treatment baseline (SD) in ASEX total score,subjects with MDD [4]; to week 6,-1.5 (4.02) points
same,improvement in HAMA6 score vs. placebo,subjects with MDD [5],greater improvement
same,TEAE in >=5% of subjects: Diarrhea,subjects with MDD [6]; [7],7 (8) n (%)
same,TEAE in >=5% of subjects: Gastrointestinal Disorders,subjects with MDD [6]; [7],12 (14) n (%)
same,TEAE in >=5% of subjects: Headache,subjects with MDD [6]; [7],10 (12) n (%)
same,TEAE in >=5% of subjects: Infections And Infestations,subjects with MDD [6]; [7],13 (15) n (%)
same,TEAE in >=5% of subjects: Nasopharyngitis,subjects with MDD [6]; [7],5 (6) n (%)
same,TEAE in >=5% of subjects: Nervous System Disorders,subjects with MDD [6]; [7],13 (15) n (%)
same,TEAE in >=5% of subjects: Pruritus,subjects with MDD [6]; [7],5 (6) n (%)
same,TEAE in >=5% of subjects: Skin And Subcutaneous Tissue Disorders,subjects with MDD [6]; [7],6 (7) n (%)
same,TEAE in >=5% of subjects: Total no. Subjects with Adverse Events,subjects with MDD [6]; [7],40 (47) n (%)
same,TEAE of Special Interest: Abdominal Pain,subjects with MDD [6]; [8],1 (1.2) n (%)
same,TEAE of Special Interest: Abdominal Pain Upper,subjects with MDD [6]; [8],0 n (%)
same,TEAE of Special Interest: Diarrhea,subjects with MDD [6]; [8],7 (8.2) n (%)
same,TEAE of Special Interest: Dyspepsia,subjects with MDD [6]; [8],1 (1.2) n (%)
same,TEAE of Special Interest: Gastrointestinal Disorders,subjects with MDD [6]; [8],9 (10.6) n (%)
same,TEAE of Special Interest: Pruritus,subjects with MDD [6]; [8],5 (5.9) n (%)
same,TEAE of Special Interest: Skin And Subcutaneous Tissue Disorders,subjects with MDD [6]; [8],5 (5.9) n (%)
same,TEAE of Special Interest: Total no. Subjects with Adverse Events of Special Interest,subjects with MDD [6]; [8],13 (15.3) n (%)
same,Subjects with 1 or more TEAE,subjects with MDD [6]; [9],40 (47.1) n (%)
same,Subjects with 1 or more serious TEAE,subjects with MDD [6]; [9],0 n (%)
same,Subjects with TEAE leading to death,subjects with MDD [6]; [9],0 n (%)
same,Subjects with TEAE leading to discontinuation of agent,subjects with MDD [6]; [9],1 (1.2) n (%)
same,Total subjects affected by non-serious adverse events,subjects with MDD [6]; [9],23 (27.1%) n (%)
same,Subjects with drug-related TEAE,"subjects with MDD [6]; Treatment period, Full Safety Analysis Set, 10 mg, N = 85, relationships possible, probable, very likely",20 (23.5) n (%)
same,patients who experienced acute cholecystitis,subjects with MDD [6]; treatment period,0 patients
same,"TEAE of special interest pruritus, subjects","subjects with MDD [6]; treatment period, 5/85",5.9%
same,"TEAE diarrhea, subjects","subjects with MDD [6]; treatment period, 7/85",8.2%
same,"TEAE headache, subjects","subjects with MDD [6]; treatment period, 10/85",11.8%
same,subjects who discontinued due to treatment-emergent adverse events,"subjects with MDD [6]; treatment period, due to diarrhea, nausea, vomiting and headache",1 subject
